According to patent publication US7897606B2, “5,6-di-substituted oxadiazolopyrazines and thiadiazolopyrazines as CXC-chemokine receptor ligands” (Schering Corporation, priority 2005, dated 2011):

Experiments:
CXCR2 = target: T1, CXCR2 (Homo sapiens, UniProt P25025); assay: CXCR2 SPA receptor binding assay
T1 construct: purchased Biosignal; host or cells: CHO cells overexpressing hCXCR2 (membranes)
T1 sequence (P25025 1-360): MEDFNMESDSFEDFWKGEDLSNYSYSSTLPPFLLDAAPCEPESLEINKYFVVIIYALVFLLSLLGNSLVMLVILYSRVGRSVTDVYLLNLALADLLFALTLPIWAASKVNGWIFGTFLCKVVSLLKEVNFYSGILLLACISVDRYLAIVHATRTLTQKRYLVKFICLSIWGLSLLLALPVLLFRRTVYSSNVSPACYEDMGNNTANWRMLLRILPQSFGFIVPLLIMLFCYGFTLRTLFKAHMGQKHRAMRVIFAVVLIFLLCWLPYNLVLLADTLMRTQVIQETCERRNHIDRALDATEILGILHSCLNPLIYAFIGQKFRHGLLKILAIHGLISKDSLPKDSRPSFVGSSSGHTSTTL
Procedure: For each well of a 96 well plate, a reaction mixture of 4 μg hCXCR2-CHO overexpressing membranes (Biosignal) and 200 μg/well WGA-SPA beads (Amersham) in 100 μl can be prepared in CXCR2 assay buffer (25 mM HEPES, pH 7.4, 2 mM CaCl2, 1 mM MgCl2). A 0.4 nM stock of ligand, [125I]-IL-8 (NEN), can be prepared in the CXCR2 assay buffer. 20× stock solutions of test compounds can be prepared in DMSO (Sigma). A 6× stock solution of GRO-α (R&D) can be prepared in CXCR2 assay buffer. The above solutions can be added to a 96-well assay plate (PerkinElmer or Corning) as follows: 10 μl test compound or DMSO, 40 ul CXCR2 assay buffer or GRO-α stock, 100 μl of reaction mixture, 50 μl of ligand stock (Final [Ligand]=0.1 nM). When 40× stock solutions of test compounds in DMSO can be prepared, then the above protocol can be used except instead 5 μl test compound or DMSO and 45 μl CXCR2 assay buffer can be used. The assay plates can be shaken for 5 minutes on a plate shaker, then incubated for 2-8 hours before cpm/well can be determined in Microbeta Trilux counter (PerkinElmer). % Inhibition of total binding minus non-specific binding (250 nM Gro-α or 50 μM antagonist) can be determined and IC50 values can be calculated.

CXCR1 = target: T2, CXCR1 (Homo sapiens, UniProt P25024); assay: CXCR1 SPA receptor binding assay
T2 construct: purchased Biosignal; host or cells: CHO cells overexpressing hCXCR1 (membranes)
T2 sequence (P25024 1-350): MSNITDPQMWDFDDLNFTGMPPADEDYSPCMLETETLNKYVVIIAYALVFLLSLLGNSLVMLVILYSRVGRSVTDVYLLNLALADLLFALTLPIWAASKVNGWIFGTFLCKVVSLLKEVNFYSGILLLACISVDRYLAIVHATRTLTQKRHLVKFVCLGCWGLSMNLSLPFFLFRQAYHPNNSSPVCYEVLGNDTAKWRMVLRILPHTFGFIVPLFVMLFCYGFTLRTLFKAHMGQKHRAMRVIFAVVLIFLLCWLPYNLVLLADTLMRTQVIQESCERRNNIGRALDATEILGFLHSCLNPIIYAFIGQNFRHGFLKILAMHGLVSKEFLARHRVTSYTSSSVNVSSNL
Procedure: For each well of a 96 well plate, a reaction mixture of 10 μg hCXCR1-CHO overexpressing membranes (Biosignal) and 200 μg/well WGA-SPA beads (Amersham) in 100 μl can be prepared in CXCR1 assay buffer (25 mM HEPES, pH 7.8, 2 mM CaCl2, 1 mM MgCl2, 125 mM NaCl, 0.1% BSA) (Sigma). A 0.4 nM stock of ligand, [125I]-IL-8 (NEN) can be prepared in the CXCR1 assay buffer. 20× stock solutions of test compounds can be prepared in DMSO (Sigma). A 6× stock solution of IL-8 (R&D) can be prepared in CXCR2 assay buffer. The above solutions can be added to a 96-well assay plate (PerkinElmer) as follows: 10 μl test compound or DMSO, 40 μl CXCR1 assay buffer or IL-8 stock, 100 μl of reaction mixture, 50 μl of ligand stock (Final [Ligand]=0.1 nM). The assay plates can be shaken for 5 minutes on plate shaker, then incubated for 8 hours before cpm/well can be determined in Microbeta Trilux counter (PerkinElmer). % Inhibition of Total binding-NSB (250 nM IL-8) can be determined for IC50 values.

- Ki (CXCR2): 196 nM
- Ki (CXCR1): 4220 nM
Compound: CC[C@@H](Nc1nc2nonc2nc1Nc1cccc(C(=O)N(C)C)c1O)c1ccc(C)o1 [Compound 4]
